Where a name gives a salt, the structure may show the parent alone.
Tests used:
[1] = system: Hepatocyte Growth Factor (HGF); assay: HGF mRNA expression in TGF-β1-treated normal human dermal fibroblasts (real-time PCR); type: cell-based; conditions: compound 500 μM, 24 h; for fold induction at 500 µM: Homo sapiens, NHDF + rhTGF-β1 (10 ng/ml), TGF-β1 control = 1.00, untreated = 7.23, read-out: HGF Relative Quantitation
Procedure: (§1) Experiments were undertaken to determine the effect of compounds on hepatocyte growth factor expression in vitro normal human dermal fibroblasts (NHDF) from adult donor (Clonetics #CC-2511). NHDF were starved overnight in DMEM/F12+0.5% FBS and treated with or without rhTGF-β1 (10 ng/ml) and compound I (500 μM) for 24 h. RNA was isolated with miRNeasy® kit (QIAGEN®), including on-column DNase digestion step. cDNA synthesis was done (0.5 μg RNA/reaction) using the RT^2 First Strand kit (QIAGEN® #330401). Real-Time PCR was performed as described in the RT^2 Profiler PCR Array handbook on a AB-7900HT real-time cycler. Real-Time PCR data was analyzed using the ΔΔCt method on the RT^2 Profiler PCR Array Data Analysis Web Portal. All Ct values >35 or non amplified were changed to the cut-off value of 35. The housekeeping genes used for normalization are GAPDH and RPLP0. The control group is TGF-β1 treated cells.

[2] = system: LOX, MMP1, MMP2, MMP9, MMP13, TIMP3 and PLAT (tPA); assay: Expression of regeneration markers in TGF-β1-injured HK-2 epithelial cells (FIG. 3); type: cell-based, human; conditions: HK-2 cells, rhTGF-β1 (10 ng/ml), compound 500 μM, 24 h
Serpin A1 (AAT) = assay: AAT mRNA expression, qPCR-panel on NHDF (FIG. 4); type: cell-based, human; conditions: injured NHDF cells
Procedure: as §1, with “cells. As mentioned above, AAT can induce nerve regeneration. […] Compound I is representative of the compounds of formula I disclosed herein. Therefore, the compounds of formula I disclosed herein may increase regeneration of nerves via the production of endogenous AAT at the site of injury.” for “cells.”

[3] = system: LOX, MMP13, PLAU (uPA), serpin E1, TIMP3 and ILK; assay: Expression of regeneration markers in TGF-β1-injured NHDF (FIG. 2); type: cell-based, human; conditions: rhTGF-β1 (10 ng/ml), compound 500 μM, 24 h
Procedure: as §1, with “cells. An experiment was undertaken to determine the effect of compounds on the expression of regeneration markers. This experiment was performed with NHDF (Normal Human Dermal Fibroblasts) and human epithelial cells (renal tubular epithelial cells, HK-2) involved in tissue regeneration after single, multiple or constant injury. Injury was simulated by incubation of the cells with TGF-β1. […]” for “cells.”

injured kidney = assay: Organ function (GFR) of an injured kidney (FIG. 5); type: in vivo
[4] = system: Hepatocyte Growth Factor (HGF); assay: HGF mRNA expression in TGF-β1-treated normal human dermal fibroblasts (real-time PCR); type: cell-based; conditions: NHDF + rhTGF-β1 (10 ng/ml), 24 h, TGF-β1 control = 1.00, untreated = 7.23, read-out: HGF Relative Quantitation; for fold induction at 250 µM: compound 250 μM; for fold induction at 100 µM: compound 100 μM

Question: For CCC/C=C/c1cccc(CC(=O)O)c1 [Compound IV, Sodium Salt of E-(3-pent-1-enyl-phenyl)acetic acid], which fold induction at 500 µM [1] is on record?
Answer: 3.8

Question: For CCCCCc1cc(O)cc(CC(=O)O)c1 [Compound VII, Sodium Salt of 3-hydroxy-5-pentylphenylacetic acid], which fold induction at 500 µM [1] is on record?
Answer: 2.66

Question: What does the source list for CCCCCc1cccc(CC(=O)[O-])c1.[Na+] [Compound I, Sodium Salt of (3-pentylphenyl)acetic acid]?
Answer: expression level of regeneration markers LOX, MMP1, MMP2, MMP9, MMP13, TIMP3 and PLAT (tPA) [2]: all expressed at a level close to the normal level observed in healthy cells; AAT mRNA expression (Serpin A1 (AAT)): increase AAT mRNA expression; fold induction at 500 µM [1]: 4.23; expression of HGF (FIG. 1), result in words ([1]; NHDF, rhTGF-β1 (10 ng/ml)): increases the expression of HGF; expression level of regeneration markers LOX, MMP13, PLAU (uPA), serpin E1, TIMP3 and ILK [3]: all expressed at a normal level; organ function (GFR) (injured kidney): increase in organ function (GFR)

Question: For CCCCCc1cc(F)cc(CC(=O)O)c1 [Compound X, Sodium Salt of 2-(3-fluoro-5-pentylphenyl)acetic acid], which fold induction at 250 µM [4] is on record?
Answer: 3.06

Question: For CCCCCc1cc(CC(=O)O)ccc1O [Compound VIII, Sodium Salt of 2-(4-Hydroxy-3-pentylphenyl)acetic acid], which fold induction at 500 µM [1] is on record?
Answer: 1.44

Question: For CCCCCc1cc(CCCCC)cc(C(C)(C)C(=O)O)c1 [Compound XXXIII, Sodium Salt of 2-(3,5-Dipentylphenyl)-2-methylpropanoic Acid], which fold induction at 6 µM ([4]; compound 6 μM) is on record?
Answer: 1.54

Question: Which fold induction at 10 µM ([4]; compound 10 μM) does the source give for CCCCCc1cc(CCCCC)c(F)c(CC(=O)O)c1 [Compound XXXII, Sodium Salt of 2-(2-Fluoro-3,5-dipentylphenyl)acetic Acid] here?
Answer: 1.73

Question: Which fold induction at 25 µM ([4]; compound 25 μM) does the source give for CCCCCc1cc(CC(=O)O)cc(CCCCC)c1O [Compound XVIII, Sodium Salt of 2-(4-Hydroxy-3,5-dipentylphenyl)acetic acid] here?
Answer: 1.4

Question: With CCCCCc1cccc(C(F)C(=O)O)c1 (racemic) [Compound XIII, Sodium Salt of (RS)-2-Fluoro-2-(3-pentylphenyl)acetic acid] as the compound, how does the fold induction at 500 µM [1] read?
Answer: 1.71

Question: Which fold induction at 100 µM [4] does the source give for CCCC/C=C/c1cccc(CC(=O)O)c1 [Compound V, Sodium Salt of 2-(3-(Hex-1-enyl]phenyl)acetic acid] here?
Answer: 2.73

Question: With CCCCc1cccc(CCC(=O)O)c1 [Compound III, Sodium Salt of 3-(3-butylphenyl)propionic acid] as the compound, how does the fold induction at 500 µM [1] read?
Answer: 2.41

Question: Which fold induction at 100 µM [4] does the source give for CCCCCCc1cccc(CC(=O)O)c1 [Compound VI, Sodium Salt of 2-(3-Hexylphenyl)acetic acid] here?
Answer: 2.77

Question: Which fold induction at 250 µM [4] does the source give for CCCCCc1cccc(CCC(=O)O)c1 [Compound II, Sodium Salt of 3-(3-pentylphenyl)propionic acid] here?
Answer: 1.37

Question: Which fold induction at 500 µM [1] does the source give for CCCCCc1cc(CC(=O)O)ccc1F [Compound XII, Sodium Salt of 2-(4-Fluoro-3-pentylphenyl)acetic acid] here?
Answer: 2.47

Question: Which fold induction at 250 µM [4] does the source give for CCCCCc1cccc(CC(=O)O)c1F [Compound XI, Sodium Salt of 2-(2-Fluoro-3-pentylphenyl)acetic acid] here?
Answer: 3.38

Question: For CCCCCc1cc(CCCCC)cc(CC(=O)[O-])c1.[Na+] [Compound XIV, Sodium 2-[3,5-Dipentylphenyl]acetate], which melting point is on record?
Answer: 225 to 230 °C

Source: patent publication US10869849B2, “Substituted aromatic compounds and pharmaceutical compositions for tissue self-repair and regeneration” (Liminal BioSciences Limited, priority 2014, dated 2020)
